Source: US11813304B2, “Compounds and methods for inhibiting phosphate transport” (Ardelyx, Inc., priority 2013, dated 2023)

Tested on: HEK-293 cells
Assay: Sodium-dependent 33P phosphate uptake in HEK-293 cells (mock, rat or human NaP2b transfected)
Assay type: cell-based
Conditions: 5 μM EIPA; cells not pretreated to lower their intracellular pH; 23 min at room temperature
Procedure: Experiments were performed to test the relationship between alterations in intracellular pH and the uptake of phosphate ions (Pi) in human embryonic kidney cells (HEK-293 cells).
HEK-293 cells were seeded into 96-well plates at 25,000 cells/well and cultured overnight. Cells were then transfected with either rat or human NaP2b cDNA, or were mock transfected (no DNA) using Lipofectamine 2000 (Invitrogen). Cells were allowed to approach confluence during a second overnight incubation.
An ammonium pulse procedure was used to reduce the intracellular pH from ˜7.4 to ˜6.8. Medium was aspirated from the wells, cells were washed twice with NaCl-HEPES buffer (100 mM NaCl, 50 mM HEPES, 10 mM glucose, 5 mM KCl, 2 mM CaCl2, 1 mM MgCl2, pH 7.4), then incubated for 30 min at room temperature with NH4Cl-HEPES buffer (20 mM NH4Cl, 80 mM NaCl, 50 mM HEPES, 5 mM KCl, 2 mM CaCl2, 1 mM MgCl2, pH 7.4) containing 5 μM BCECF-AM. […] The reduction in intracellular pH to approximately pH 6.8 was verified by monitoring the pH sensitive changes in BCECF fluorescence (λex 505 nm, λem 538 nm) normalized to the pH insensitive BCECF fluorescence (λex 439 nm, λem 538 nm). […]
Uptake of ^33P was measured in the presence and absence of 5 μM EIPA, a specific inhibitor of NHE1. […] Cells were lysed by addition of 20 μL 0.1% Tween 80 followed by 100 μL scintillation fluid, and counted using a TopCount (Perkin Elmer).

CCN(c1nc(N)c(C(=O)NC(=N)N)nc1Cl)C(C)C [EIPA]
Pi uptake (33P): small yet significant decrease
